Publication PMC12251549, “Engineering a Radiohybrid PSMA Ligand with an Albumin-Binding Moiety and Pharmacokinetic Modulation via an Albumin-Binding Competitor for Radiotheranostics” (Molecules, 2025)

How the values were obtained:
[1] = Biodistribution after intravenous co-injection of [125I]5 and [211At]6 (Table S2); assay type: in vivo, normal mice (ddY); conditions: normal mice, i.v.
Description: [^67Ga]Ga-PSMA-617 (37 kBq) and [^125I]5 (37 kBq) or [^125I]5 (37 kBq) and [^211At]6 (37 kBq) were intravenously co-administered into three or four normal mice at each timepoint (6 weeks male ddY mice, 28–30 g, Japan SLC, Inc., Hamamatsu, Japan). Mice were sacrificed at 10 min, 1 h, 4 h, and 24 h ([^67Ga]Ga-PSMA-617 and [^125I]5) or at 10 min, 1 h, 4 h, 12 h, and 24 h ([^125I]5 and [^211At]6) postinjection of the radiolabeled compounds. Tissues of interest were removed and weighed, and the radioactivity of ^67Ga and ^125I and ^125I and ^211At were determined with an auto well gamma counter (ARC-8001) and corrected for background radiation as described in the Cellular Uptake Experiments Section. To determine the amount and routes of the radioactivity excreted from the body for 24 h after the injection of radiolabeled compounds, mice were housed in metabolic cages (METABOLICA, SUGIYAMA-GEN Co., Ltd., Tokyo, Japan). Data are shown as the percentage of injected dose per gram of tissues (%ID/g) or %ID.

[2] = In vitro stability test in 0.1 M phosphate buffer; assay type: physicochemical; conditions: 0.1 M PB solution containing 10% ethanol, 37 °C, 24 h, mean ± SD for three samples
Description: samples were analyzed by RP-HPLC using a Cosmosil 5C18-AR-II (4.6 × 150 mm) at a flow rate of 1 mL/min with a gradient mobile phase of 60% methanol in water with 0.1% trifluoroacetic acid (TFA) to 80% methanol in water with 0.1% TFA for 20 min.
In vitro stability test in 0.1 M PB solution containing 10% ethanol was performed. The […]
and 97.1 ± 0.9% (mean ± SD for three samples) after incubating at 37 °C for 24 h, […]

Biodistribution of radioactivity: Liver ([1]; 10 min after injection): 3.56 (0.01) % injected dose per gram
Biodistribution of radioactivity: Lung ([1]; 10 min after injection): 13.97 (2.31) % injected dose per gram
Biodistribution of radioactivity: Muscle ([1]; 10 min after injection): 1.01 (0.09) % injected dose per gram
Biodistribution of radioactivity: Neck ([1]; 10 min after injection): 0.06 (0.01) % injected dose
Biodistribution of radioactivity: Pancreas ([1]; 10 min after injection): 2.73 (0.25) % injected dose per gram
Biodistribution of radioactivity: S. Intestine ([1]; 10 min after injection): 1.63 (0.23) % injected dose per gram
Biodistribution of radioactivity: Spleen ([1]; 10 min after injection): 2.78 (0.58) % injected dose per gram
Biodistribution of radioactivity: Stomach ([1]; 10 min after injection): 1.12 (0.10) % injected dose
Biodistribution of radioactivity: Blood ([1]; 1 h after injection): 15.32 (1.28) % injected dose per gram
Biodistribution of radioactivity: Bone ([1]; 1 h after injection): 1.67 (0.13) % injected dose per gram
Biodistribution of radioactivity: Brain ([1]; 1 h after injection): 0.33 (0.09) % injected dose per gram
Biodistribution of radioactivity: Heart ([1]; 1 h after injection): 4.10 (0.15) % injected dose per gram
Biodistribution of radioactivity: Kidney ([1]; 1 h after injection): 4.66 (0.50) % injected dose per gram
Biodistribution of radioactivity: L. Intestine ([1]; 1 h after injection): 0.89 (0.15) % injected dose per gram
Biodistribution of radioactivity: Liver ([1]; 1 h after injection): 2.32 (0.32) % injected dose per gram
Biodistribution of radioactivity: Lung ([1]; 1 h after injection): 8.89 (2.09) % injected dose per gram
Biodistribution of radioactivity: Muscle ([1]; 1 h after injection): 1.24 (0.08) % injected dose per gram
Biodistribution of radioactivity: Neck ([1]; 1 h after injection): 0.15 (0.04) % injected dose
Biodistribution of radioactivity: Pancreas ([1]; 1 h after injection): 1.86 (0.33) % injected dose per gram
Biodistribution of radioactivity: S. Intestine ([1]; 1 h after injection): 1.62 (0.30) % injected dose per gram
Biodistribution of radioactivity: Spleen ([1]; 1 h after injection): 1.79 (0.34) % injected dose per gram
Biodistribution of radioactivity: Stomach ([1]; 1 h after injection): 1.29 (0.50) % injected dose
Biodistribution of radioactivity: Blood ([1]; 4 h after injection): 12.08 (0.95) % injected dose per gram
Biodistribution of radioactivity: Bone ([1]; 4 h after injection): 1.83 (0.61) % injected dose per gram
Biodistribution of radioactivity: Brain ([1]; 4 h after injection): 0.29 (0.04) % injected dose per gram
Biodistribution of radioactivity: Heart ([1]; 4 h after injection): 3.88 (0.13) % injected dose per gram
Biodistribution of radioactivity: Kidney ([1]; 4 h after injection): 5.20 (0.25) % injected dose per gram
Biodistribution of radioactivity: L. Intestine ([1]; 4 h after injection): 1.26 (0.30) % injected dose per gram
Biodistribution of radioactivity: Liver ([1]; 4 h after injection): 1.50 (0.16) % injected dose per gram
Biodistribution of radioactivity: Lung ([1]; 4 h after injection): 7.01 (1.68) % injected dose per gram
Biodistribution of radioactivity: Muscle ([1]; 4 h after injection): 1.20 (0.07) % injected dose per gram
Biodistribution of radioactivity: Neck ([1]; 4 h after injection): 0.27 (0.09) % injected dose
Biodistribution of radioactivity: Pancreas ([1]; 4 h after injection): 1.57 (0.21) % injected dose per gram
Biodistribution of radioactivity: S. Intestine ([1]; 4 h after injection): 1.28 (0.16) % injected dose per gram
Biodistribution of radioactivity: Spleen ([1]; 4 h after injection): 1.54 (0.22) % injected dose per gram
Biodistribution of radioactivity: Stomach ([1]; 4 h after injection): 0.94 (0.29) % injected dose
Biodistribution of radioactivity: Blood ([1]; 12 h after injection): 11.77 (1.29) % injected dose per gram
Biodistribution of radioactivity: Bone ([1]; 12 h after injection): 1.88 (0.25) % injected dose per gram
Biodistribution of radioactivity: Brain ([1]; 12 h after injection): 0.34 (0.07) % injected dose per gram
Biodistribution of radioactivity: Heart ([1]; 12 h after injection): 3.62 (0.39) % injected dose per gram
Biodistribution of radioactivity: Kidney ([1]; 12 h after injection): 6.62 (0.34) % injected dose per gram
Biodistribution of radioactivity: L. Intestine ([1]; 12 h after injection): 0.87 (0.13) % injected dose per gram
Biodistribution of radioactivity: Liver ([1]; 12 h after injection): 1.59 (0.12) % injected dose per gram
Biodistribution of radioactivity: Lung ([1]; 12 h after injection): 8.00 (1.24) % injected dose per gram
Biodistribution of radioactivity: Muscle ([1]; 12 h after injection): 1.32 (0.07) % injected dose per gram
Biodistribution of radioactivity: Neck ([1]; 12 h after injection): 0.12 (0.09) % injected dose
Biodistribution of radioactivity: Pancreas ([1]; 12 h after injection): 1.75 (0.45) % injected dose per gram
Biodistribution of radioactivity: S. Intestine ([1]; 12 h after injection): 1.08 (0.07) % injected dose per gram
Biodistribution of radioactivity: Spleen ([1]; 12 h after injection): 1.75 (0.21) % injected dose per gram
Biodistribution of radioactivity: Stomach ([1]; 12 h after injection): 0.68 (0.09) % injected dose
Biodistribution of radioactivity: Blood ([1]; 24 h after injection): 8.71 (0.20) % injected dose per gram
Biodistribution of radioactivity: Bone ([1]; 24 h after injection): 1.26 (0.12) % injected dose per gram
Biodistribution of radioactivity: Brain ([1]; 24 h after injection): 0.22 (0.02) % injected dose per gram
Biodistribution of radioactivity: Heart ([1]; 24 h after injection): 2.91 (0.21) % injected dose per gram
Biodistribution of radioactivity: Kidney ([1]; 24 h after injection): 5.06 (0.61) % injected dose per gram
Biodistribution of radioactivity: L. Intestine ([1]; 24 h after injection): 0.63 (0.09) % injected dose per gram
Biodistribution of radioactivity: Liver ([1]; 24 h after injection): 1.29 (0.05) % injected dose per gram
Biodistribution of radioactivity: Lung ([1]; 24 h after injection): 5.00 (0.75) % injected dose per gram
Biodistribution of radioactivity: Muscle ([1]; 24 h after injection): 1.08 (0.08) % injected dose per gram
Biodistribution of radioactivity: Neck ([1]; 24 h after injection): 0.17 (0.05) % injected dose
Biodistribution of radioactivity: Pancreas ([1]; 24 h after injection): 1.35 (0.12) % injected dose per gram
Biodistribution of radioactivity: S. Intestine ([1]; 24 h after injection): 0.69 (0.04) % injected dose per gram
Biodistribution of radioactivity: Spleen ([1]; 24 h after injection): 1.21 (0.27) % injected dose per gram
Biodistribution of radioactivity: Stomach ([1]; 24 h after injection): 0.55 (0.02) % injected dose
Biodistribution of radioactivity: Feces ([1]; excreted for 24 h after injection (column not printed safely), Table S2): 8.13 (1.09) % injected dose
Radiochemical purity after incubation (in vitro stability) [2]: 97.0 ± 0.7%
SMILES: O=C([O-])CN1CCN(CC(=O)[O-])CCN(CC(=O)NC(CCCCNC(=O)CCCc2ccc([125I])cc2)C(=O)NCC2CCC(C(=O)NC(Cc3ccc4ccccc4c3)C(=O)NCCCCC(NC(=O)NC(CCC(=O)O)C(=O)O)C(=O)O)CC2)CCN(CC(=O)[O-])CC1.[Ga+3] (stereo not drawn) [[^125I]5]
